Measured values taken from patent US10196345B2, “MAO-B selective inhibitor compounds, pharmaceutical compositions thereof and uses thereof” (The University of British Columbia, priority 2013, dated 2019).
Values joined by “and” are separate entries in the source; they are usually repeats but may differ in a detail not shown here. Equal values may be shown once. “Also recorded” adds a separate entry of the source. Where a name gives a salt, the structure may show the parent alone. Read-outs that look alike come from different tables or passages of the source.

Assays:
[1] = test system: Madin Darby canine kidney (MDCK-I) cells; assay: TEER in MDCK-I cells; assay type: cell-based; conditions: for 144-hour barrier (TEER) vs control: MDCK-I, treated at 72 hours; for effect on TEER (MAO A, B, AB inhibitors): no concentration given
Protocol: In each case, TEER was measured every 48 hours after treatment.
Transwell cultures were treated at 72 hours (T) post-cell plating.
Transepithelial Resistance (TER) is a common method to screen for barrier integrity. […] Fluorescein isothiocyanate conjugated 10 kD dextran (Invitrogen™) will be added to the apical Transwell™ compartment, fixed, and examined for dextran permeation (Umeda et al., 2006).
Amphiregulin (AR) is an EGFR binding ligand and may play a pivotal role in the previously described signaling axis (see FIGS. 15-17). […] (ii) GI [intestinal epithelial cell (IEC)] and (iii) classical [Madin-Darby canine kidney (MDCK-1)].

[2] = 14 week study, cited from earlier work
recombinant human MAO-B = target: T1, recombinant human MAO-B (Homo sapiens, UniProt P27338); assay: Cell-free Fluorescent Monoamine Oxidase A&B Detection Assay, MAO-B; assay type: biochemical; conditions: for IC50: read-out: IC50 MAO-B
T1 sequence (P27338 1-520): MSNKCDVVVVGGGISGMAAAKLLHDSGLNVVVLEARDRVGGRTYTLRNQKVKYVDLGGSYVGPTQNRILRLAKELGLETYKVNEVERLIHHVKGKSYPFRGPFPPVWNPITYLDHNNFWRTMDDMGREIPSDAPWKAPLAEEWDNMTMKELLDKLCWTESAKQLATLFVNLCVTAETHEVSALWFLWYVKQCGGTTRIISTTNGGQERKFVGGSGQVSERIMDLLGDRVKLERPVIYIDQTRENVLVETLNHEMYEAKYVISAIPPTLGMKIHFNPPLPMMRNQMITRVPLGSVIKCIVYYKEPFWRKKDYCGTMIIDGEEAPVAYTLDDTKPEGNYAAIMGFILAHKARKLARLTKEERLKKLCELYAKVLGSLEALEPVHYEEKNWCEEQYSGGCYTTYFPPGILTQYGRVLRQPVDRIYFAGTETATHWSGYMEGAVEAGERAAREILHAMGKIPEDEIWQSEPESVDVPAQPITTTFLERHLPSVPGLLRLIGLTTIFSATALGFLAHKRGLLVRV
Protocol: (§1) The assay was repeated to confirm data.
(§2) MAO B specific inhibitory activity and selectivity over MAO A is assayed using a commercial kit [Fluoro MAO A and B detection kit (Cell Technology Inc™)]. This kit uses a non-fluorescent detection reagent to measure H2O2 released from the conversion of an MAO A and MAO B substrate specific to its aldehyde. Furthermore, H2O2 oxidizes the detection reagent in a 1:1 stoichiometry to produce a fluorescent product (resorufin). […] This information is then provided to the medicinal chemists to help direct synthesis of subsequent iterations.

[3] = in vitro BBB permeability in MDCK-WT cells; conditions: dog, MDCK
From the text: (§3) Wildtype Madin-Darby canine cells (MDCK-WT) were used to predict CNS permeability of compounds PS-RG0103, PS-RG0216, PS-RG0245 and PS-AD0191. […] J Allergy Clin Immunol. 1990; 86(6 pt 2): p. 1025-8.
(§4) Novel MAO B inhibitors selected based on the above screening program will be screened using an in vitro model of blood brain barrier (BBB). Madin-Darby canine kidney (MDCK-WT) and MDCK cells transfected with the human MDR1 gene (MDCK-MDR1) are well established in vitro models used to predict a compound's ability to permeate the blood brain barrier (BBB). […] Apparent permeability (Papp), Efflux ratio (Papp B-A/Papp A-B), as well as the Net flux ratio (Efflux ratioMDCK-MDR1/Efflux ratioMDCK-WT) can be calculated to identify compound BBB permeability and identify compounds that are substrates of P-gp.

recombinant human MAO-A = target: T2, recombinant human MAO-A (Homo sapiens, UniProt P21397); assay: Cell-free Fluorescent Monoamine Oxidase A&B Detection Assay, MAO-A; assay type: biochemical; conditions: for IC50: read-out: IC50 MAO-A
T2 sequence (P21397 1-527): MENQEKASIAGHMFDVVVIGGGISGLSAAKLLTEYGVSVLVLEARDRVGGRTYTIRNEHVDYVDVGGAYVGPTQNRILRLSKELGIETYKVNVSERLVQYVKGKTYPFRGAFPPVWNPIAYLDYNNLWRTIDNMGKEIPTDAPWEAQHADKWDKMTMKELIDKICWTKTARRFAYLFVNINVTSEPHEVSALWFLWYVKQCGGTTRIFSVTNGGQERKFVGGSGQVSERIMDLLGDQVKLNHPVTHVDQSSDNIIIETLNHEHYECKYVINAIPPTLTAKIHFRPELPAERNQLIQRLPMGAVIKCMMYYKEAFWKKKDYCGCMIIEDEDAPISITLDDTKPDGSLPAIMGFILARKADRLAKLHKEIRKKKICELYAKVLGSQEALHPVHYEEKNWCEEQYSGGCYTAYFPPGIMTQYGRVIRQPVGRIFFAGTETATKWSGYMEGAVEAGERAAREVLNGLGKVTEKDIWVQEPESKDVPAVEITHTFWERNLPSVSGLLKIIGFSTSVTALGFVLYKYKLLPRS
Protocol: as §1, §2

[4] = hepatocytes, 1 h
[5] = stability assay in mouse liver microsomes; conditions: after 60 minutes at room temperature
[6] = stability assay in human liver microsomes; conditions: after 60 minutes at room temperature
[7] = test system: Wildtype Madin-Darby canine cells (MDCK-WT); assay: in vitro BBB permeability in MDCK-WT cells; conditions: MDCK-WT; one-way ANOVA, Dunnett's test
From the text: as §3, §4

[8] = test system: IL-8 protein expression in Caco-2 cells; assay: IL-8 protein expression in LPS- and TNFα-treated Caco-2 cells; assay type: cell-based, human; conditions: Caco-2, 1 μg/mL LPS or 50 ng/mL TNFα + 20 μM compound, 4, 12 or 24 h
Protocol: Caco-2 cells were seeded at 83300 cells/cm^2 on a polystyrene 96-well plate in DMEM medium (#10313-021, Gibco™) containing 10% FBS. On day 5 after seeding, wells were replaced with fresh media containing 2.5% FBS. […] Supernatants of the treated cells were analyzed for pro- and anti-inflammatory cytokine proteins using the Human Proinflammatory 7-Plex Ultra-Sensitive Kit™ (K15008C, MSD™) measured by the Sector Imager 2400A (MSD™). Left panel: Absolute concentrations of IL-8 protein in supernatants of cells treated with control (media only), 1 μg/mL LPS or 50 ng/mL TNFα. […] Values were determined by subtracting supernatant cytokine concentrations of control from supernatant cytokine concentrations of treated cells. Results are expressed as mean±standard deviation (n=3).

[9] = cell-free, recombinant human MAO-A
[10] = cell-free, recombinant human MAO-A, read-out: IC90 MAO-A
[11] = cell-free, recombinant human MAO-A, hydrochloride

Structure (SMILES): O=C(NCCN1CCOCC1)c1ccc(Cl)cc1 [moclobemide]
- 144-hour barrier (TEER) vs control ([1]; 5 μm inhibitor): increased over control
- barrier integrity at low doses ([1]; low doses): small increase in the barrier integrity
- effect on TEER (MAO A, B, AB inhibitors) [1]: generally reduced TEER

Structure (SMILES): C#CCN(C)[C@H](C)Cc1ccccc1 [L-selegiline]
- total body fat reduction compared to control rats [2]: 30%
- food intake vs untreated controls ([2]; rats): comparable
- lower weight gain compared to untreated controls ([2]; rats): 14%
- plasma leptin levels reduction ([2]; rats): 41%

Structure (SMILES): CN(CC(=O)O)[C@H](CC#N)Cc1ccc(OCc2ccc(Cl)c(Cl)c2)cc1.Cl [PS-AD0191, (S)—N-(1-cyano-3-(4-((3,4-dichlorobenzyl)oxy)phenyl)propan-2-yl)-N-methylglycine]
- IC90 (recombinant human MAO-B): 1030 nM
- IC50 (recombinant human MAO-B): 300 nM and 302 nM
- Papp [3]: 7.9 ± 1.4 ×10⁻⁶ cm/s
- IC50 (recombinant human MAO-A; [9]): 54600 nM
- IC90 (recombinant human MAO-A; [10]): 424 µM

Structure (SMILES): C#CCN(C)CCCOc1ccc(Cl)cc1Cl [Clorgyline]
- IC90 (recombinant human MAO-A; read-out: IC90 MAO-A (μM)): 0.00624 µM
- 144-hour barrier (TEER) vs control ([1]; 5 μm inhibitor): significantly reduced the barrier
- 144-hour barrier (TEER) vs control ([1]; 40 μm inhibitor): significantly reduced the barrier
- effect on TEER (MAO A, B, AB inhibitors) [1]: generally reduced TEER

Structure (SMILES): C[C@H](Cc1ccc(OCc2cccc(Cl)c2)cc1)N(C)CC(=O)O [PS-RG0103, N—((R)-(1-(4-(3-chlorobenzyloxy)phenyl)propan-2-yl)(methyl))glycine hydrochloride]
- IC90 (recombinant human MAO-B): 2280 nM
- IC50 (recombinant human MAO-B): 270 nM and 275 nM
- Papp [3]: 2.2 ± 0.2 ×10⁻⁶ cm/s
- IC50 MAO-A (μM) (recombinant human MAO-A; [11]): no activity on MAO-A; also recorded: Does not
- compound remaining, mouse hepatocyte stability [4]: 101%
- compound remaining in mouse microsome [5]: 69%
- compound remaining in human microsome [6]: 93%

Structure (SMILES): C[C@H](Cc1ccc(OCc2ccc(Cl)c(Cl)c2)cc1)N(C)CC(=O)O.Cl [PS-RG0245, (R)—N-(1-(4-((3,4-dichlorobenzyl)oxy)phenyl)propan-2-yl)-N-methylglycine hydrochloride]
- IC90 (recombinant human MAO-B): 873 nM
- IC50 (recombinant human MAO-B): 210 nM and 207 nM
- permeability compared with cetirizine [7]: not different from cetirizine
- Papp [3]: 3.6 ± 0.2 ×10⁻⁶ cm/s
- IC50 (recombinant human MAO-A; [9]): 17200 nM and 17100 nM
- IC90 (recombinant human MAO-A; [10]): 99.8 µM

Structure (SMILES): C#CCN(C)Cc1ccccc1 [pargyline]
- 144-hour barrier (TEER) vs control ([1]; 5 μm inhibitor): increased over control
- 144-hour barrier (TEER) vs control ([1]; 40 μm inhibitor): increased over control
- effect on TEER (MAO A, B, AB inhibitors) [1]: increased TEER

Structure (SMILES): CN(CC(=O)O)[C@H](CCO)Cc1ccc(OCc2ccccc2)cc1.Cl [PS-AD0179, (S)—N-(1-(4-(benzyloxy)phenyl)-4-hydroxybutan-2-yl)-N-methylglycine]
- IC90 (recombinant human MAO-B): 167000 nM
- IC50 (recombinant human MAO-B): 7820 nM
- IC50 MAO-A (μM) (recombinant human MAO-A; [9]): Does not

Structure (SMILES): C[C@H](Cc1ccc(OCc2ccc(Br)c(Cl)c2)cc1)N(C)CC(=O)O.Cl [PS-RG0216, (R)—N-(1-(4-((4-bromo-3-chlorobenzyl)oxy)phenyl)propan-2-yl)-N-methylglycine hydrochloride]
- IC90 (recombinant human MAO-B): 1020 nM
- IC50 (recombinant human MAO-B): 200 nM and 203 nM
- permeability compared with cetirizine [7]: not different from cetirizine
- Papp [3]: 1.2 ± 0.1 ×10⁻⁶ cm/s
- IC50 MAO-A (μM) (recombinant human MAO-A; [11]): no activity on MAO-A; also recorded: Does not
- compound remaining, mouse hepatocyte stability [4]: 100%
- IL-8 protein expression [8]: attenuation of IL-8 protein expression
- compound remaining in mouse microsome [5]: 74%
- compound remaining in human microsome [6]: 91%

Structure (SMILES): CN(CC(=O)O)c1ccc(CCOCc2ccccc2)cc1.Cl [PS-RG0210]
- IC90 (recombinant human MAO-B): 708000 nM
- IC50 (recombinant human MAO-B): 23600 nM
- IC50 MAO-A (μM) (recombinant human MAO-A; [9]): Does not

Structure (SMILES): C[C@H](Cc1ccc(OCc2ccccc2Cl)cc1)N(C)CC(=O)O [PS-RG0121, N—((R)-(1-(4-(2-chlorobenzyloxy)phenyl)propan-2-yl)(methyl))glycine hydrochloride]
- IC90 (recombinant human MAO-B): 8130 nM
- IC50 (recombinant human MAO-B): 668 nM
- IC50 MAO-A (μM) (recombinant human MAO-A; [9]): Does not

Structure (SMILES): C[C@H](Cc1ccc(OCCc2ccccc2)cc1)N(C)CC(=O)O.Cl [PS-RG0247]
- IC90 (recombinant human MAO-B): 619000 nM
- IC50 (recombinant human MAO-B): 19300 nM
- IC50 MAO-A (μM) (recombinant human MAO-A; [9]): Does not

Structure (SMILES): C[C@H](Cc1ccc(OCc2ccccc2)cc1)N(C)CC(=O)O [PS-RG0031A, N—((R)-(1-(4-(benzyloxy)phenyl)propan-2-yl)(methyl))glycine hydrochloride]
- IC90 (recombinant human MAO-B): 30500 nM
- IC50 (recombinant human MAO-B): 908 nM
- IC50 MAO-A (μM) (recombinant human MAO-A; [9]): Does not
